Measured values from patent publication US12378231B2, “Small molecules as monoacylglycerol lipase (MAGL) inhibitors, compositions and use thereof” (APOGEE PHARMACEUTICALS, INC., priority 2023, dated 2025).

Experiments:
human recombinant MAGL = human recombinant MAGL (Homo sapiens (Human), UniProt Q99685); assay: In vitro inhibition of human recombinant MAGL activity (Cayman inhibitor screening kit, 4-nitrophenylacetate hydrolysis); type: biochemical; conditions: human recombinant MAGL; read-out: Inhibition on MAGL activity (IC50)
human recombinant MAGL, sequence (Q99685 whole entry): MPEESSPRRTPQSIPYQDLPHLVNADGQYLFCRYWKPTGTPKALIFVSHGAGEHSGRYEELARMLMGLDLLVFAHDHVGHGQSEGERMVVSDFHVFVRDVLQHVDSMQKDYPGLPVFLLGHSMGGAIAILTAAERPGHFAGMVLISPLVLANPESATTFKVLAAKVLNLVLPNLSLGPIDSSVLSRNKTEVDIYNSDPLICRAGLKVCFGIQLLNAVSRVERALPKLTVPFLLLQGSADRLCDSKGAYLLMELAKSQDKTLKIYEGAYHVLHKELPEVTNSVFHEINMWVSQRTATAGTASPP
From the text: The inhibitory effect of the synthetic chemicals on activity of human recombinant MAGL was studied using commercial inhibitor screening kit (Cayman Chemical). […] The absorbance of the yellow product can be analyzed using the plate reader. […]

human recombinant FAAH = human recombinant FAAH (Homo sapiens (Human), UniProt O00519); assay: In vitro inhibition of human recombinant FAAH activity (Cayman FAAH inhibitor screening kit, AMC arachidonoyl amide hydrolysis); type: biochemical
human recombinant FAAH, sequence (O00519 whole entry): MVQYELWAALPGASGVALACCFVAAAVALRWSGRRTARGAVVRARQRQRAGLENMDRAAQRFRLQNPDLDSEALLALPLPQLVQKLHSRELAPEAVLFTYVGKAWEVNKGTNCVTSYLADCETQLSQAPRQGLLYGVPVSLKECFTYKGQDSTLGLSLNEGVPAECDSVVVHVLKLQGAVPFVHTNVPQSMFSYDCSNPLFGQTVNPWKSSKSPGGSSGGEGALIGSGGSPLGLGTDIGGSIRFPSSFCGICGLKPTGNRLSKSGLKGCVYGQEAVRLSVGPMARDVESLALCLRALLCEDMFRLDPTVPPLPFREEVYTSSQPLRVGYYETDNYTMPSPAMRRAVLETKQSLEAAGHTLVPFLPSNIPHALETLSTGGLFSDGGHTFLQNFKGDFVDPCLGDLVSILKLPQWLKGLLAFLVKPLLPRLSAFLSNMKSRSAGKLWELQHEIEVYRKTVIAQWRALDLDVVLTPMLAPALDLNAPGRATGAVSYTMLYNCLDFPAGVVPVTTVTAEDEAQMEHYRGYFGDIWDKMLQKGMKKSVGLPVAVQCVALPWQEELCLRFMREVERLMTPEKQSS
From the text: In brief, FAAH hydrolyzes AMC arachidonoyl amide resulting in the release of the fluorescent product, while the inhibitor will inhibit the FAAH activity and thus reduce the fluorescent signal.

IC50 (human recombinant MAGL) [nM]	IC50 (human recombinant FAAH) [nM]	SMILES
1 to 10	100 to 1000	N#Cc1ccc2nnn(C(=O)N3CCC(N(c4ccc(C(F)(F)F)cc4)c4ccc5c(c4)OCO5)CC3)c2c1 [Example 69, 1-(4-(benzo[d][1,3]dioxol-5-yl(4-(trifluoromethyl)phenyl)amino)piperidine-1-carbonyl)-1H-benzo[d][1,2,3]triazole-6-carbonitrile]
1 to 10	100 to 1000	N#Cc1ccc2c(c1)nnn2C(=O)N1CCC(N(c2ccc(C(F)(F)F)cc2)c2ccc3c(c2)OCO3)CC1 [Example 70, 1-(4-(benzo[d][1,3]dioxol-5-yl(4-(trifluoromethyl)phenyl)amino)piperidine-1-carbonyl)-1H-benzo[d][1,2,3]triazole-5-carbonitrile]
1 to 10	100 to 1000	N#Cc1ncn(C(=O)N2CCC(N(c3ccc(C(F)(F)F)cc3)c3ccc4c(c3)OCO4)CC2)n1 [Example 71, 1-(4-(benzo[d][1,3]dioxol-5-yl(4-(trifluoromethyl)phenyl)amino)piperidine-1-carbonyl)-1H-1,2,4-triazole-3-carbonitrile]
1 to 10	100 to 1000	COc1ccc(N(c2ccc3c(c2)OCO3)C2CCN(C(=O)n3nnc4ccc(C#N)cc43)CC2)cc1 [Example 72, 1-(4-(benzo[d][1,3]dioxol-5-yl(4-methoxyphenyl)amino)piperidine-1-carbonyl)-1H-benzo[d][1,2,3]triazole-6-carbonitrile]
1 to 10	100 to 1000	COc1ccc(N(c2ccc3c(c2)OCO3)C2CCN(C(=O)n3nnc4cc(C#N)ccc43)CC2)cc1 [Example 73, 1-(4-(benzo[d][1,3]dioxol-5-yl(4-methoxyphenyl)amino)piperidine-1-carbonyl)-1H-benzo[d][1,2,3]triazole-5-carbonitrile]
1 to 10	100 to 1000	N#Cc1ccc2nnn(C(=O)N3CCC(N(c4cccnc4)c4ccc5c(c4)OCO5)CC3)c2c1 [Example 74, 1-(4-(benzo[d][1,3]dioxol-5-yl(pyridin-3-yl)amino)piperidine-1-carbonyl)-1H-benzo[d][1,2,3]triazole-6-carbonitrile]
1 to 10	100 to 1000	N#Cc1ccc2c(c1)nnn2C(=O)N1CCC(N(c2cccnc2)c2ccc3c(c2)OCO3)CC1 [Example 75, 1-(4-(benzo[d][1,3]dioxol-5-yl(pyridin-3-yl)amino)piperidine-1-carbonyl)-1H-benzo[d][1,2,3]triazole-5-carbonitrile]
1 to 10	100 to 1000	C=COc1ccc(N(c2ccc(F)cc2)C2CCN(C(=O)n3nnc4ccc(C#N)cc43)CC2)cc1 [Example 76, 1-(4-((4-fluorophenyl)(4-(vinyloxy)phenyl)amino)piperidine-1-carbonyl)-1H-benzo[d][1,2,3]triazole-6-carbonitrile]
1 to 10	100 to 1000	C=COc1ccc(N(c2ccc(F)cc2)C2CCN(C(=O)n3nnc4cc(C#N)ccc43)CC2)cc1 [Example 77, 1-(4-((4-fluorophenyl)(4-(vinyloxy)phenyl)amino)piperidine-1-carbonyl)-1H-benzo[d][1,2,3]triazole-5-carbonitrile]
1 to 10	~50000	N#Cc1ncn(C(=O)N2CCC3(CC2)CCN(C(c2ccc4c(c2)COCO4)c2ccc4c(c2)COCO4)CC3)n1 [Example 79, 1-(9-(bis(4H-benzo[d][1,3]dioxin-6-yl)methyl)-3,9-diazaspiro[5.5]undecane-3-carbonyl)-1H-1,2,4-triazole-3-carbonitrile]
10 to 100	10000 to 50000	N#Cc1ncn(C(=O)N2CC3(C2)CN(C(c2ccc4c(c2)COCO4)c2ccc4c(c2)COCO4)C3)n1 [Example 80, 1-(6-(bis(4H-benzo[d][1,3]dioxin-6-yl)methyl)-2,6-diazaspiro[3.3]heptane-2-carbonyl)-1H-1,2,4-triazole-3-carbonitrile]
1 to 10	1000 to 10000	N#Cc1ncn(C(=O)N2CC3CN(C(c4ccc5c(c4)COCO5)c4ccc5c(c4)COCO5)CC3C2)n1 (stereo not drawn) [Example 81, meso-1-(5-(bis(4H-benzo[d][1,3]dioxin-6-yl)methyl)octahydropyrrolo[3,4-c]pyrrole-2-carbonyl)-1H-1,2,4-triazole-3-carbonitrile]
10 to 100	> 50000	N#Cc1ncn(C(=O)N2CC3(CCN(C(c4ccc5c(c4)COCO5)c4ccc5c(c4)COCO5)CC3)C2)n1 [Example 82, 1-(7-(bis(4H-benzo[d][1,3]dioxin-6-yl)methyl)-2,7-diazaspiro[3.5]nonane-2-carbonyl)-1H-1,2,4-triazole-3-carbonitrile]
1 to 10	10000 to 50000	N#Cc1ncn(C(=O)N2CCC3(CC2)CN(C(c2ccc4c(c2)COCO4)c2ccc4c(c2)COCO4)C3)n1 [Example 83, 1-(2-(bis(4H-benzo[d][1,3]dioxin-6-yl)methyl)-2,7-diazaspiro[3.5]nonane-7-carbonyl)-1H-1,2,4-triazole-3-carbonitrile]
1 to 10	1000 to 10000	N#Cc1ncn(C(=O)N2CC3(CCN(C(c4ccc5c(c4)COCO5)c4ccc5c(c4)COCO5)C3)C2)n1 [Example 84, 1-(6-(bis(4H-benzo[d][1,3]dioxin-6-yl)methyl)-2,6-diazaspiro[3.4]octane-2-carbonyl)-1H-1,2,4-triazole-3-carbonitrile]
10 to 100	1000 to 10000	N#Cc1ncn(C(=O)N2CCC3(CCN(C(c4ccc5c(c4)COCO5)c4ccc5c(c4)COCO5)C3)C2)n1 (stereo not shown) [Example 85, 1-(7-(bis(4H-benzo[d][1,3]dioxin-6-yl)methyl)-2,7-diazaspiro[4.4]nonane-2-carbonyl)-1H-1,2,4-triazole-3-carbonitrile]
1 to 10	100 to 10000	COc1ccc(C(c2ccc(F)cc2)N2CCN(C(=O)n3nnc4cc(C#N)ccc43)CC2)cc1 (stereo not shown) [Example 87, 1-(4-((4-fluorophenyl)(4-methoxyphenyl)methyl)piperazine-1-carbonyl)-1H-benzo[d][1,2,3]triazole-5-carbonitrile]
1 to 10	~50000	COc1ccc(C(c2ccc(OC)cc2)N2CCN(C(=O)n3nnc4ccc(C#N)cc43)CC2)cc1 [Example 88, 1-(4-(bis(4-methoxyphenyl)methyl)piperazine-1-carbonyl)-1H-benzo[d][1,2,3]triazole-6-carbonitrile]
10 to 100	1000 to 10000	COc1ccc(C(c2ccc(OC)cc2)N2CCN(C(=O)n3nnc4cc(C#N)ccc43)CC2)cc1 [Example 89, 1-(4-(bis(4-methoxyphenyl)methyl)piperazine-1-carbonyl)-1H-benzo[d][1,2,3]triazole-5-carbonitrile]
1 to 10	1000 to 10000	COc1ccc(C(c2ccc(OC)cc2)N2CCN(C(=O)n3cnc(C#N)n3)CC2)cc1 [Example 90, 1-(4-(bis(4-methoxyphenyl)methyl)piperazine-1-carbonyl)-1H-1,2,4-triazole-3-carbonitrile]
1 to 10	~10000	N#Cc1ncn(C(=O)N2CCN(C(c3ccc4c(c3)OCCO4)c3ccc4c(c3)OCCO4)CC2)n1 [Example 92, 1-(4-(bis(2,3-dihydrobenzo[b][1,4]dioxin-6-yl)methyl)piperazine-1-carbonyl)-1H-1,2,4-triazole-3-carbonitrile]
10 to 100	> 50000	COc1ccc(C(c2ccc(OC)c(OC)c2)N2CCN(C(=O)n3nnc4ccc(C#N)cc43)CC2)cc1OC [Example 93, 1-(4-(bis(3,4-dimethoxyphenyl)methyl)piperazine-1-carbonyl)-1H-benzo[d][1,2,3]triazole-6-carbonitrile]
10 to 100	> 50000	COc1ccc(C(c2ccc(OC)c(OC)c2)N2CCN(C(=O)n3nnc4cc(C#N)ccc43)CC2)cc1OC [Example 94, 1-(4-(bis(3,4-dimethoxyphenyl)methyl)piperazine-1-carbonyl)-1H-benzo[d][1,2,3]triazole-5-carbonitrile]
1 to 10	10000 to 50000	COc1cccc(C(c2cccc(OC)c2)N2CCN(C(=O)n3nnc4ccc(C#N)cc43)CC2)c1 [Example 95, 1-(4-(bis(3-methoxyphenyl)methyl)piperazine-1-carbonyl)-1H-benzo[d][1,2,3]triazole-6-carbonitrile]
1 to 10	1000 to 10000	COc1cccc(C(c2cccc(OC)c2)N2CCN(C(=O)n3nnc4cc(C#N)ccc43)CC2)c1 [Example 96, 1-(4-(bis(3-methoxyphenyl)methyl)piperazine-1-carbonyl)-1H-benzo[d][1,2,3]triazole-5-carbonitrile]
1 to 10	1000 to 10000	COc1cccc(C(c2cccc(OC)c2)N2CCN(C(=O)n3cnc(C#N)n3)CC2)c1 [Example 97, 1-(4-(bis(3-methoxyphenyl)methyl)piperazine-1-carbonyl)-1H-1,2,4-triazole-3-carbonitrile]
1 to 10	> 50000	N#Cc1ccc2nnn(C(=O)N3CCN(C(c4ccc5c(c4)OC(F)(F)O5)c4ccc5c(c4)OC(F)(F)O5)CC3)c2c1 [Example 98, 1-(4-(bis(2,2-difluorobenzo[d][1,3]dioxol-5-yl)methyl)piperazine-1-carbonyl)-1H-benzo[d][1,2,3]triazole-6-carbonitrile]
1 to 10	> 50000	N#Cc1ccc2c(c1)nnn2C(=O)N1CCN(C(c2ccc3c(c2)OC(F)(F)O3)c2ccc3c(c2)OC(F)(F)O3)CC1 [Example 99, 1-(4-(bis(2,2-difluorobenzo[d][1,3]dioxol-5-yl)methyl)piperazine-1-carbonyl)-1H-benzo[d][1,2,3]triazole-5-carbonitrile]
1 to 10	> 50000	N#Cc1ccc(C(c2ccc(C#N)cc2)N2CCN(C(=O)n3nnc4ccc(C#N)cc43)CC2)cc1 [Example 100, 4,4′-((4-(6-cyano-1H-benzo[d][1,2,3]triazole-1-carbonyl)piperazin-1-yl)methylene)dibenzonitrile]
